# From PubChem BioAssay AID2060486 (Molecular Pharmacology Branch, DTP, NCI, 2025)
# Tested on: IGROV1 complex spheroids (HUVEC, MSC), viability % test/control
# Test: Anticancer human tumor IGROV1 cell line growth inhibition [GQUAD];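 note: spheroids exposed to compounds for 7 days before readout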
# Conditions: for IC50: curve of first compound; for viability, T/C: stronger effect = lower value
# Source text: DNA G-quadruplex Stabilizer Agents in Combinations in Complex Spheroids
# A high-throughput screen of multi-cell type tumor spheroids was designed to identify active combinations of DNA G-quadruplex stabilizer agents and targeted small molecules. Complex spheroids include a stromal component modeled by human endothelial cells (HUVEC) and fibroblasts modeled by human mesenchymal stem cells (MSCs). The concentration ranges selected for each drug and investigational agent were based upon clinically achievable concentrations if the clinical Cmax of the agent was known.
# Compounds. The drugs and investigational agents: pidnarulex (CX-5461; NSC782164), APTO-253 (NSC789042), BRACO-19 (NSC847499), peposertib (NSC802822), ceralasertib (NSC780249), elimusertib (NSC800525), camonsertib (NSC841442), AZD-1390 (NSC803789), olaparib (NSC753686), talazoparib (NSC767125), ART-558 (NSC835418), sotorasib (NSC818433), MRTX-1133 (NSC836407), SN-38 (NSC673596), topotecan (NSC609699), etoposide (NSC141540), doxorubicin (NSC123127), gemcitabine (NSC613327), 5-fluorouracil (NSC19893), paclitaxel (NSC125973), vemurafenib (NSC761431), panobinostat (NSC761190), R-306465 (JNJ-16241199; NSC773264), adavosertib (NSC754352), TP-3654 (NSC805149), carboplatin (NSC241240), KSQ-4279 (NSC840948), and staurosporine (NSC755774) were obtained from the National Cancer Institute (NCI) Developmental Therapeutics Program Chemical Repository (34). The FDA-approved anticancer drug set is available from the NCI Developmental Therapeutics Program. […] The stock solutions were prepared in dimethyl sulfoxide (DMSO, Sigma-Aldrich, St. Louis, MO, cat. D2650) at 800-fold the tested concentration and stored at -70 degrees C prior to their use. All drugs and investigational agents were tested over a range starting from a high concentration at or near the clinical Cmax and decreasing in half-log increments. If the clinical Cmax for an agent had not been determined, the highest concentration tested was 10 microM.
# 2.3 Cell Culture. All cells were maintained in an incubator at 37 degrees C and 5% CO2 with 95% humidity. The PDC lines were cultured according to standard operating procedures established by the NCI PDMR. All PDCs were thawed and cultured in Matrigel-coated flasks prepared with a working solution of 1X Ham's F-12 nutrient mix, without supplementation (Invitrogen, cat. 11765054), 100 U/mL penicillin-streptomycin (Invitrogen, cat. 15140122), and 2.5% Matrigel (Corning Inc., cat. 354248) for the first three passages. The 857933-349-R-J2-PDC line was cultured in 6C/Colon 1B media, which includes advanced DMEM/F-12 (Thermo Fisher Scientific, cat. 12634028), 10 mM HEPES (Thermo Fisher Scientific, cat. 15630080), 1X GlutaMAX supplement (Thermo Fisher Scientific, cat. 35050061), 0.1 mg/mL primocin (InvivoGen, cat. ant-pm-2), 10% defined fetal bovine serum, heat inactivated (HyClone Laboratories Inc., cat. SH30070.03HI), 50% L-WRN conditioned media (ATCC, cat. CRL-3276), 1.25 mM N-Acetyl-L-cysteine (Sigma-Aldrich, cat. A9165), 10 mM nicotinamide (Sigma-Aldrich, cat. N0636), 1X B-27 supplement (Thermo Fisher Scientific, cat. 17504044), 1X N-2 supplement (Thermo Fisher Scientific, cat. 17502048), 10 microM Y-27632 dihydrochloride (Tocris Bioscience, cat. 1254), and 50 ng/mL human EGF recombinant protein (Thermo Fisher Scientific, cat. PHG0311). The 485176-168-R4-J1-PDC line was cultured in Panc media, which includes all 6C/Colon 1B media components plus 100 ng/mL human FGF-10 (Thermo Fisher Scientific, cat. 100-26), 500 nM SB-431542 (Selleckchem, cat. S1067), and gastrin (Tocris, cat. 3006).
# […]
# [1] = second compound 0.0316 µM, first compound 0.0316 µM
# [2] = second compound 0.0316 µM, first compound 0.1 µM
# [3] = second compound 0.0316 µM, first compound 0.316 µM
# [4] = second compound 0.0316 µM, first compound 1 µM
# [5] = second compound 0.0316 µM, first compound 3.16 µM
# [6] = second compound 0.0316 µM, first compound 10 µM
# [7] = second compound 0.1 µM, first compound 0.0316 µM
# [8] = second compound 0.1 µM, first compound 0.1 µM
# [9] = second compound 0.1 µM, first compound 0.316 µM
# [10] = second compound 0.1 µM, first compound 1 µM
# [11] = second compound 0.1 µM, first compound 3.16 µM
# [12] = second compound 0.1 µM, first compound 10 µM
# [13] = second compound 0.316 µM, first compound 0.0316 µM
# [14] = second compound 0.316 µM, first compound 0.1 µM
# [15] = second compound 0.316 µM, first compound 0.316 µM
# [16] = second compound 0.316 µM, first compound 1 µM
# [17] = second compound 0.316 µM, first compound 3.16 µM
# [18] = second compound 0.316 µM, first compound 10 µM
# [19] = second compound 1 µM, first compound 0.0316 µM
# [20] = second compound 1 µM, first compound 0.1 µM
# [21] = second compound 1 µM, first compound 0.316 µM
# [22] = second compound 1 µM, first compound 1 µM
# [23] = second compound 1 µM, first compound 3.16 µM
# [24] = second compound 1 µM, first compound 10 µM
# [25] = second compound 3.16 µM, first compound 0.0316 µM
# [26] = second compound 3.16 µM, first compound 0.1 µM
# [27] = second compound 3.16 µM, first compound 0.316 µM
# [28] = second compound 3.16 µM, first compound 1 µM
# [29] = second compound 3.16 µM, first compound 3.16 µM
# [30] = second compound 3.16 µM, first compound 10 µM
# [31] = second compound 10 µM, first compound 0.0316 µM
# [32] = second compound 10 µM, first compound 0.1 µM
# [33] = second compound 10 µM, first compound 0.316 µM
# [34] = second compound 10 µM, first compound 1 µM
# [35] = second compound 10 µM, first compound 3.16 µM
# [36] = second compound 10 µM, first compound 10 µM
structure (smiles),measurement,setting,value
CC(C)n1c(=O)n(C)c2cnc3cc(F)c(-c4ccc(OCCCN5CCCCC5)nc4)cc3c21 + Cc1[nH]c2ccc(F)cc2c1-c1nc2c3cccnc3c3ncccc3c2[nH]1,IC50,second compound 0.0316 µM,3520 nM
same,IC50,second compound 0.1 µM,4100 nM
same,IC50,second compound 0.316 µM,2080 nM
same,IC50,second compound 1 µM,< 31.6 nM
same,IC50,second compound 3.16 µM,< 31.6 nM
same,IC50,second compound 10 µM,< 31.6 nM
same,"viability, T/C",[1],99.9%
same,"viability, T/C",[2],84.8%
same,"viability, T/C",[3],92.5%
same,"viability, T/C",[4],69%
same,"viability, T/C",[5],55.5%
same,"viability, T/C",[6],18.6%
same,"viability, T/C",[7],81.2%
same,"viability, T/C",[8],91.8%
same,"viability, T/C",[9],82.6%
same,"viability, T/C",[10],62.3%
same,"viability, T/C",[11],65.6%
same,"viability, T/C",[12],20.5%
same,"viability, T/C",[13],76.4%
same,"viability, T/C",[14],88.8%
same,"viability, T/C",[15],78%
same,"viability, T/C",[16],59%
same,"viability, T/C",[17],44.5%
same,"viability, T/C",[18],12.2%
same,"viability, T/C",[19],4%
same,"viability, T/C",[20],4.91%
same,"viability, T/C",[21],5.53%
same,"viability, T/C",[22],4.22%
same,"viability, T/C",[23],5.34%
same,"viability, T/C",[24],3.26%
same,"viability, T/C",[25],4.58%
same,"viability, T/C",[26],4.72%
same,"viability, T/C",[27],4.85%
same,"viability, T/C",[28],5.73%
same,"viability, T/C",[29],4.75%
same,"viability, T/C",[30],1.86%
same,"viability, T/C",[31],4.57%
same,"viability, T/C",[32],6.24%
same,"viability, T/C",[33],5.89%
same,"viability, T/C",[34],5.99%
same,"viability, T/C",[35],4.07%
same,"viability, T/C",[36],2.35%
Cc1cccc(N(C)C(=O)C2C(O)CCN2c2nc(C)cc(C(F)(F)F)c2C#N)c1 (centres undefined) + Cc1[nH]c2ccc(F)cc2c1-c1nc2c3cccnc3c3ncccc3c2[nH]1,IC50,second compound 0.0316 µM,> 10000 nM
same,IC50,second compound 0.1 µM,> 10000 nM
same,IC50,second compound 0.316 µM,> 10000 nM
same,IC50,second compound 1 µM,< 31.6 nM
same,IC50,second compound 3.16 µM,< 31.6 nM
same,IC50,second compound 10 µM,< 31.6 nM
same,"viability, T/C",[1],108%
same,"viability, T/C",[2],82.3%
same,"viability, T/C",[3],105%
same,"viability, T/C",[4],76.1%
same,"viability, T/C",[5],98%
same,"viability, T/C",[6],100%
same,"viability, T/C",[7],105%
same,"viability, T/C",[8],82.2%
same,"viability, T/C",[9],107%
same,"viability, T/C",[10],69.1%
same,"viability, T/C",[11],105%
same,"viability, T/C",[12],105%
same,"viability, T/C",[13],83.7%
same,"viability, T/C",[14],53.2%
same,"viability, T/C",[15],70%
same,"viability, T/C",[16],78.8%
same,"viability, T/C",[17],94.7%
same,"viability, T/C",[18],76.3%
same,"viability, T/C",[19],4%
same,"viability, T/C",[20],6.22%
same,"viability, T/C",[21],5.36%
same,"viability, T/C",[22],4.57%
same,"viability, T/C",[23],4.11%
same,"viability, T/C",[24],2.68%
same,"viability, T/C",[25],3.63%
same,"viability, T/C",[26],4.69%
same,"viability, T/C",[27],4.7%
same,"viability, T/C",[28],4.75%
same,"viability, T/C",[29],3.97%
same,"viability, T/C",[30],2.92%
same,"viability, T/C",[31],4.3%
same,"viability, T/C",[32],3.62%
same,"viability, T/C",[33],4.75%
same,"viability, T/C",[34],3.64%
same,"viability, T/C",[35],4.04%
same,"viability, T/C",[36],3.25%
